Laboratory results taken from patent US6566074B1, “Methods of modulating cell attachment and migration” (The General Hospital Corporation, priority 1999, dated 2003).

Tested on: FN−/−fibroblasts
Assay type: cell-based, mouse
Details: Rho experiment: substrate 120 kDa CBD of fibronectin; substance added as supplement (Figs 5B-5D)

Q: For Lysophosphatidic acid [LPA], which “% of attached cells that assemble focal adhesions and actin stress fibers (spread morphology)” value is on record?
A: Its value is 95%.
